Data as given in the supplement of paper PMC11208160.

Assay: recombinant barcode read abundance after kanamycin selection (control-corrected) (log10(CPM+1)); higher = more efficient recombination; sequences stand for … in AGTGCAGAGAAAATCGGCCAGTTTTCTCTGCCTGCAGTCCGCATGCCGT…AGATTTATGCAGCGGACTGCCTTTCTCCCAAAGTGATAAACCGGACAGTATCATGGACCGGTTTTCCCGGTAATCCGTATTTGCAAGGTTGGTTTCACT; site = the 11-nt target
Procedure: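 Pooled E. coli target-specificity screen for the IS621 bridge recombinase. Each library plasmid pairs an 11-nt target (CT core) with a bridge RNA whose target-binding loop (9-nt LTG + 4-nt RTG) is reprogrammed; the rest of the 177-nt WT IS621 bridge RNA scaffold is fixed. The plasmid is co-electroporated with a WT donor plasmid; recombinase is induced with 0.1 mM IPTG and recombinants are selected on kanamycin. Recombinant barcodes are sequenced, converted to CPM, averaged over two biological replicates and corrected by the unselected control CPM. Molecule = full bridge RNA written as DNA: LTG = specificity nt 1-9, RTG = reverse complement of specificity nt 8-11, in the WT scaffold.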
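Also: IS621 recombinase and bridge RNA in Escherichia coli cells.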

| Sequence | recombinant barcode read abundance (log10) |
| --- | --- |
| AAGGCCGCTTGGGTTCTAACCTGTTGCCT (site AAGGACGCTAG) | 1.37 |
| AAGGCCGCTTGGGTTCTAACCTGTTGCCT (site AAGGCCGCTAG) | 1.79 |
| AAGGCCGCTTGGGTTCTAACCTGTTGCCT (site AAGGGCGCTAG) | 0.161 |
| AAGGCCGCTTGGGTTCTAACCTGTTGCCT (site AAGGTCGCTAG) | 0.259 |
| AAGGCGCCTTGGGTTCTAACCTGTTGCCT (site AAGGCGCCTAG) | 0.806 |
| AAGGCGCCTTGGGTTCTAACCTGTTGCCT (site ACGGCGCCTAG) | 0.11 |
| AAGGCGCCTTGGGTTCTAACCTGTTGCCT (site AGGGCGCCTAG) | 0.128 |
| AAGGCGCCTTGGGTTCTAACCTGTTGCCT (site ATGGCGCCTAG) | 0.135 |
| AAGGGCTCTTGGGTTCTAACCTGTTGCTT (site AAGGGCTCTAA) | 2.72 |
| AAGGGCTCTTGGGTTCTAACCTGTTGCTT (site GTCTCTCCTCT) | 0.129 |
| AAGGTCCCTTGGGTTCTAACCTGTTGCGG (site AAGGTCCCTCC) | 3.32 |
| AAGGTCCCTTGGGTTCTAACCTGTTGCGG (site TAGGTCCCTTC) | 0.0703 |
| AAGGTGTCTTGGGTTCTAACCTGTTGCCT (site AAAGTGTCTAG) | 1.97 |
| AAGGTGTCTTGGGTTCTAACCTGTTGCCT (site AACGTGTCTAG) | 0.736 |
| AAGGTGTCTTGGGTTCTAACCTGTTGCCT (site AAGGTGTCTAG) | 3.29 |
| AAGGTGTCTTGGGTTCTAACCTGTTGCCT (site AATGTGTCTAG) | 0.45 |
| AAGTCCACTTGGGTTCTAACCTGTTGCTT (site AAGTCCACTAA) | 0.856 |
| AAGTCCACTTGGGTTCTAACCTGTTGCTT (site TAGTCCACTTA) | 0.093 |
| AAGTGGTCTTGGGTTCTAACCTGTTGCTA (site AAGTGGTCTTA) | 1.46 |
| AAGTGGTCTTGGGTTCTAACCTGTTGCTA (site TGAGTCCCTCT) | 0 |
| AAGTTGTCTTGGGTTCTAACCTGTTGCGT (site AAGTTGTCTAC) | 2.77 |
| AAGTTGTCTTGGGTTCTAACCTGTTGCGT (site CAGTTGTCTAG) | 0.0897 |
| AATACCACTTGGGTTCTAACCTGTTGCCT (site AATACCACTAG) | 0.576 |
| AATACCACTTGGGTTCTAACCTGTTGCCT (site AATCGCACTAG) | 0.186 |
| AATAGGACTTGGGTTCTAACCTGTTGCGC (site AATAGGACTGC) | 1.76 |

| Sequence | recombinant barcode read abundance (log10) |
| --- | --- |
| AATAGGACTTGGGTTCTAACCTGTTGCGC (site ATTAGGACTTC) | 0.0105 |
| AATATAGCTTGGGTTCTAACCTGTTGCTA (site AATATAGCTTA) | 0.0685 |
| AATATAGCTTGGGTTCTAACCTGTTGCTA (site TTCCCCACTAG) | 0 |
| AATCGAGCTTGGGTTCTAACCTGTTGCGG (site AATCGAGCTCC) | 1.82 |
| AATCGAGCTTGGGTTCTAACCTGTTGCGG (site TCCGCTTCTAA) | 0.0864 |
| AATCTCCCTTGGGTTCTAACCTGTTGCCT (site AATATGCCTAG) | 0.298 |
| AATCTCCCTTGGGTTCTAACCTGTTGCCT (site AATCTCCCTAG) | 1.07 |
| AATGAATCTTGGGTTCTAACCTGTTGCCT (site AATGAATCTAG) | 0.312 |
| AATGAATCTTGGGTTCTAACCTGTTGCCT (site AATGCATCTAG) | 0.255 |
| AATGAATCTTGGGTTCTAACCTGTTGCCT (site AATGGATCTAG) | 0.53 |
| AATGAATCTTGGGTTCTAACCTGTTGCCT (site AATGTATCTAG) | 0.301 |
| AATGGGCCTTGGGTTCTAACCTGTTGCCT (site AATGGGACTAG) | 0.131 |
| AATGGGCCTTGGGTTCTAACCTGTTGCCT (site AATGGGCCTAG) | 0.273 |
| AATGGGCCTTGGGTTCTAACCTGTTGCCT (site AATGGGGCTAG) | 0.179 |
| AATGGGCCTTGGGTTCTAACCTGTTGCCT (site AATGGGTCTAG) | 0.201 |
| AATGGGGCTTGGGTTCTAACCTGTTGCTG (site AATGGGGCTCA) | 1.15 |
| AATGGGGCTTGGGTTCTAACCTGTTGCTG (site TATGGAGCTCA) | 0.0813 |
| AATGTACCTTGGGTTCTAACCTGTTGCCT (site AATGTACCTAG) | 1.89 |
| AATGTACCTTGGGTTCTAACCTGTTGCCT (site CATGTACCTAG) | 0.45 |
| AATGTACCTTGGGTTCTAACCTGTTGCCT (site GATGTACCTAG) | 0.0545 |
| AATGTACCTTGGGTTCTAACCTGTTGCCT (site TATGTACCTAG) | 1.27 |
| AATGTGTCTTGGGTTCTAACCTGTTGCCT (site AAAGTGTCTAG) | 0.663 |
| AATGTGTCTTGGGTTCTAACCTGTTGCCT (site AACGTGTCTAG) | 1.47 |
| AATGTGTCTTGGGTTCTAACCTGTTGCCT (site AAGGTGTCTAG) | 1.01 |
| AATGTGTCTTGGGTTCTAACCTGTTGCCT (site AATGTGTCTAG) | 2.59 |

| Sequence | recombinant barcode read abundance (log10) |
| --- | --- |
| AATTAGACTTGGGTTCTAACCTGTTGCCT (site AATTAGACTAG) | 1.12 |
| AATTAGACTTGGGTTCTAACCTGTTGCCT (site CATTAGACTAG) | 0.152 |
| AATTAGACTTGGGTTCTAACCTGTTGCCT (site GATTAGACTAG) | 0.226 |
| AATTAGACTTGGGTTCTAACCTGTTGCCT (site TATTAGACTAG) | 0.125 |
| AATTAGCCTTGGGTTCTAACCTGTTGCCT (site AATTAGCCTAG) | 0.488 |
| AATTAGCCTTGGGTTCTAACCTGTTGCCT (site GTGAGCACTTA) | 0.185 |
| AATTGGCCTTGGGTTCTAACCTGTTGCTT (site AATTGGCCTAA) | 0.344 |
| AATTGGCCTTGGGTTCTAACCTGTTGCTT (site GATAGGCCTAA) | 0.37 |
| AATTTAGCTTGGGTTCTAACCTGTTGCCT (site AATTAAGCTAG) | 0.172 |
| AATTTAGCTTGGGTTCTAACCTGTTGCCT (site AATTCAGCTAG) | 0.169 |
| AATTTAGCTTGGGTTCTAACCTGTTGCCT (site AATTGAGCTAG) | 0.0396 |
| AATTTAGCTTGGGTTCTAACCTGTTGCCT (site AATTTAGCTAG) | 0.244 |
| ACAAAACCTTGGGTTCTAACCTGTTGCCT (site ACAAAACCTAG) | 0.171 |
| ACAAAACCTTGGGTTCTAACCTGTTGCCT (site ACAAACCCTAG) | 0.461 |
| ACAAAACCTTGGGTTCTAACCTGTTGCCT (site ACAAAGCCTAG) | 0.0848 |
| ACAAAACCTTGGGTTCTAACCTGTTGCCT (site ACAAATCCTAG) | 0.0655 |
| ACAAAAGCTTGGGTTCTAACCTGTTGCGG (site ACAAAAGCTCC) | 1.59 |
| ACAAAAGCTTGGGTTCTAACCTGTTGCGG (site ACAAAGGCTCC) | 0.514 |
| ACAAAGACTTGGGTTCTAACCTGTTGCCT (site ACAAAGACTAG) | 0.847 |
| ACAAAGACTTGGGTTCTAACCTGTTGCCT (site ACAAGGGCTAG) | 0.0359 |
| ACAACCACTTGGGTTCTAACCTGTTGCCT (site ACAACCACTAG) | 0.235 |
| ACAACCACTTGGGTTCTAACCTGTTGCCT (site ACAACGACTAG) | 0.0258 |
| ACAACCTCTTGGGTTCTAACCTGTTGCCG (site ACAACCTCTCG) | 1.23 |
